From patent publication US6307080A, “Water-soluble zinc pyruvates or their hydrates, method for the product ion thereof and their use” (SKW Trostberg Aktiengesellschaft, priority 1998, dated 2001)
pIC50: −log10 of the molar value.

How the values were obtained:
[1] = system: influenza A/Chile/1/83 or influenza B/Singapore/27/79 (viral hemagglutination of erythrocytes); test: Inhibition of influenza-induced viral hemagglutination (vHAI) of erythrocytes (RBC); format: cell-based, influenza A and influenza B viruses; conditions: Table 1; for pIC50: read-out: HAI IC50
Solubility = format: physicochemical; conditions: product of Berzelius's instructions, identified as zinc parapyruvate
[2] = system: influenza A/Chile/1/83 or influenza B/Singapore/27/79 in MDCK cells; format: cell-based, influenza A and influenza B viruses; conditions: Table 1; for Plaque (plaque reduction assay): concentration in plaque reduction assay, MDCK cells, 30 min treatment; for Plaque Reduction: percentage reduction in number of plaque per unit volume (well), 30 min
type II diabetics = conditions: cited from earlier work
macrophages [3] = test: Binding/association of zinc pyruvate to macrophages (equilibrium dialysis)
macrophages [4] = test: Inhibition of superoxide (HO2) release from activated macrophages (cytochrome C reduction); format: cell-based; conditions: in words

Row | Compound | pIC50 [1] | Plaque (plaque reduction assay) [2] | Plaque Reduction [2] | Potency HAI [1] | also measured
1 | [O]=[Zn] [ZnO.H2 O] | ~3.70 | – | – | – | –
2 | CC(O)(CC(=O)C(=O)[O-])C(=O)[O-].[Zn+2] (centres unmarked) [zinc parapyruvate] | – | – | – | – | solubility (Solubility): sparingly soluble
3 | CC(=O)[O-].CC(=O)[O-].[Zn+2] [Zn(Ac)2] | 3.82 | 1700 µM | 15% | 6.0 | –
4 | [Cl-].[Cl-].[Zn+2] [ZnCl2] | 4.00 | 1200 µM | 20% | 5.0 | –
5 | [Zn] [zinc] | – | – | – | – | average fasting blood sugar (type II diabetics; after administration of zinc for 6 weeks, decrease from 250, Perger and coworkers): 142 mg %; fasting and postprandial blood sugar level (type II diabetics; other studies, zinc administration): decreases markedly
6 | O.[O]=[Zn] [ZnO.H2 O] | – | 1700 µM | 15% | 4.5 | –
7 | zinc pyruvate | 4.60 | 90.5 µM | 67% | 19.9 | binding constant (macrophages [3]; macrophages, cell count of 10^5, read-out: binding constant determined by equilibrium dialysis): 150 nM; association constant of zinc pyruvate to the macrophages (macrophages [3]; under these in-vitro conditions): 150 nM; lysis of RBC cells begins at (erythrocytes (RBC)): 1000 µg/mL; inhibitory effect on the release of HO2 (respiratory burst activity) (macrophages [4]): regulatory and in part inhibitory effect
